Laboratory results reported in paper PMC8610152, “Residue substitution enhances the immunogenicity of neoepitopes from gastric cancers” (Cancer Biology & Medicine, 2021).
“Also recorded” adds a separate entry of the source.

Columns and labels:
[1] = biological target: T1, HLA-A0201 molecules on the T2 cell surface (Homo sapiens, UniProt P04439, D140Y/D185E/D98H/E176V/E277Q/G131W/G231S/I119V/I121R/I166T/I218V/L300P/L318F/N151K/N90K/P208A/P217A/Q86G/Q94H/R138H/R169H/T345S); assay: T2 binding (affinity) assay; settings: T2 cells 1 × 10^6 cells/well, 50 µg epitope + 3 µg β2M in 1 mL FBS-free RPMI1640, 37 °C, 18 h, PE-HLA-A2 antibody, flow cytometry, FI = (MFI epitope – MFI control)/MFI control, mean ± SD
T1 construct: The MFI (mean fluorescence intensity) of HLA-A0201 molecules on the T2 cell surface was detected by flow cytometry; endogenous in cells; host or cells: T2 cells
Method: The T2 cells were placed in a 24-well plate at a density of 1 × 10^6 cells/well; 50 µg epitope and 3 µg β2M (Merck, Kenilworth, NJ, USA) were then added and incubated in 1 mL fetal bovine free (FBS)-free RPMI1640 medium (Invitrogen, Carlsbad, CA, USA) at 37 °C for 18 h. T2 cells were washed twice with phosphate-buffered saline (PBS), treated with 20 µL PE-HLA-A2 fluorescent antibody (BD Biosciences, San Jose, CA, USA), incubated in the dark for 30 min, and then washed with PBS once. The MFI (mean fluorescence intensity) of HLA-A0201 molecules on the T2 cell surface was detected by flow cytometry (BD Biosciences). The formula used for calculating the fluorescence index was as follows: FI = (MFI of the epitope group – MFI of the control group)/MFI of the control group.

neoepitope-specific CTLs [2] = assay: Intracellular perforin staining of CTLs; assay type: cell-based, human; settings: T cells:T2 cells loaded with wild-type neoepitopes 10:1, 24 h, brefeldin A 1 h, CD8+ gate, flow cytometry, mean ± SD of 3 independent experiments
Method: (§1) To elicit neoepitope-specific CD8^+ T cell responses, peripheral blood mononuclear cells (PBMCs) were isolated from healthy HLA-A0201 volunteer donors using lymphocyte separation medium (MP Biomedicals, Burlingame, CA, USA). This protocol was approved by the Ethics Committee of Fujian Cancer Hospital (Approval No. SQ2017-032-01). PBMCs were seeded into a 6-well plate and incubated for 2 h. Adherent cells were then induced to differentiate into dendritic cells (DCs) with 581 medium (Corning, NY, USA) in the presence of 100 ng/mL recombinant human GM-CSF (Mitenyi Biotec, Bergisch Gladbach, Germany) and 50 ng/mL recombinant human IL-4 (Mitenyi Biotec). DCs were sensitized with 10 µg/mL neoepitope, with a preparation without peptide serving as the control. After 24 h, 10 ng/mL IL-6 (Miltenyi Biotec), 10 ng/mL IL-1β (Miltenyi Biotec), 1 µg/mL CD40L (Miltenyi Biotec), and 10 ng/mL TNF-α (Mitenyi Biotec) were added for DC maturation. Next, naïve T cells were co-cultured for 7 days with DCs at a responder: stimulator ratio of 10:1. Medium was then replaced by half-fresh medium containing IL-2 (200 IU/mL, Jiangsu Kingsley Pharmaceutical, Nanjing, China) every 3 days. After another stimulation with neoepitope-loaded DCs for 7 days, CD8 MicroBeads (Mitenyi Biotec) were used to isolate positive CD8^+ T cells for subsequent experiments.
T cells and T2 cells loaded with wild-type neoepitopes were co-cultured at a ratio of 10:1 for 24 h, incubated in the presence of 5 µg/mL brefeldin A for 1 h, and washed with PBS once. The cells were stained with 20 µL PerCP-CD3 fluorescent antibody and 5 µL APC-CD8 fluorescent antibody in the dark for 30 min, followed by fixation with 100 µL Reagent A from a Intrasure Kit (BD Biosciences) in the dark for 5 min. Subsequently, the cells were permeabilized and stained with 50 µL Reagent B from the Intrasure Kit and 20 µL FITC-perforin fluorescent antibody (BD Biosciences) in the dark for 30 min. After washing with PBS once, the expression of perforin in T cells was detected by flow cytometry.

naïve CD8+ T cells = assay: CFSE proliferation of CD8+ T cells stimulated by neoepitope-loaded DCs; assay type: cell-based, human; settings: DCs loaded with 10 µg/mL neoepitope, T cells:DCs 10:1, two rounds of 7 days, flow cytometry, mean ± SD
Method: as §1
The naïve CD8^+ T cells were adjusted to 1 × 10^7 cells/mL and subjected to carboxyfluorescein succinimidyl ester (CFSE; Invitrogen) staining. The CFSE concentration was 1 µg/mL. Naïve CD8^+ T cells were incubated at 37 °C in the dark for 5 min. CFSE-labeled naïve CD8^+ T cells were incubated in 5 times the volume of 581 medium containing 5% FBS (PAN-Seratech, Aidenbach, Germany) in the dark for 2.5 min, centrifuged at 1,500 rpm for 5 min, and resuspended in 581 medium. The naïve CD8^+ T cells were co-cultured with DCs with different neoepitopes at a ratio of 10:1 (naive CD8^+ T cells: 1 × 10^6 cells: DCs: 1 × 10^5 cells). After co-culturing with DCs with different neoepitopes for 2 consecutive times, 7 days for each time, T cells were stained with 20 µL PerCP-CD3 fluorescent antibody (BD Biosciences) and 5 µL APC-CD8 fluorescent antibody (BD Biosciences) in the dark for 30 min. The CFSE abundance on the surface of T cells was detected by flow cytometry to determine the proliferation of T cells.

[3] = biological target: T2, pMHC complex (neoepitope/HLA-A0201) on T2 cells (Homo sapiens, UniProt P04439, D140Y/D185E/D98H/E176V/E277Q/G131W/G231S/I119V/I121R/I166T/I218V/L300P/L318F/N151K/N90K/P208A/P217A/Q86G/Q94H/R138H/R169H/T345S); assay: T2 stability assay of pMHC complex; assay type: binding; settings: for DC50 (time required for 50% dissociation of the pMHC complex stabilized at t = 0 h): T2 cells, 50 µg epitope + 3 µg β2M 18 h, 5 µg/mL brefeldin A 1 h, then 0, 6, 12, 18, 24 h at 37 °C, PE-HLA-A2 flow cytometry; for Stability of pMHC complexes (dissociation rate over 0-24 h, Figure 2B): in words, mean ± SD of 3 independent experiments
T2 construct: endogenous in cells; host or cells: T2 cells
Method: T2 cells were cultured with 50 µg of each epitope peptide and 3 µg β2M for 18 h in 1 mL FBS-free RPMI1640 medium at 37 °C in a 24-well plate using 1 × 10^6 cells/well. T2 cells were then incubated with 5 µg/mL brefeldin A (Abcam, Cambridge, UK) at 37 °C for another 1 h after washing twice with PBS. […] The MFI of the HLA-A0201 molecules in T2 cells was detected by flow cytometry. The results are expressed as DC50, which is the time required for 50% dissociation of the pMHC complex stabilized at t = 0 h.

T cells = assay: IFN-γ ELISA, T cells co-cultured with neoepitope-loaded DCs; assay type: cell-based, human; settings: ELISA of co-culture supernatant; compared with wild-type neoepitope, P < 0.05
Method: as §1
(§2) The level of IFN-γ or TNF-α in the culture supernatants was detected using commercially available ELISA kits (Thermo Fisher Scientific, Waltham, MA, USA). Briefly, 96-well plates were coated with 100 µL/well capture antibody in coating buffer overnight. Plates were washed with wash buffer 3 times, 200 µL/well ELISA Diluent (1×) was added, and plates were incubated for 1 h. After washing with wash buffer twice, 100 µL/well of supernatants were added, incubated for 2 h, and washed with wash buffer 3 times, followed by addition of 100 µL/well antibodies against human IFN-γ/TNF-α. […] After incubation for 15 min, 100 µL/well stop solution was added to each well, and the optical density was measured using a microplate reader at 450 nm.

neoepitope-specific CTLs [4] = assay: IFN-γ ELISA, CTLs co-cultured with target cells; assay type: cell-based, human; settings: ELISA of supernatant; compared with CTLs stimulated by wild-type neoepitopes, P < 0.05
Method: as §1, §2

neoepitope-specific CTLs [5] = assay: TNF-α ELISA, CTLs co-cultured with target cells; assay type: cell-based, human; settings: ELISA of supernatant; compared with CTLs stimulated by wild-type neoepitopes, P < 0.05
Method: as §1, §2

[6] = test system: T2 cells loaded with wild-type neoepitopes; assay: LDH release cytotoxicity assay of neoepitope-specific CTLs; assay type: cell-based, human; settings: effector/target 20:1, 10:1, 5:1, 4 h, 37 °C, compared with wild-type neoepitope-specific CTLs
Method: as §1
The amount of lactate dehydrogenase (LDH) released from target cells incubated with neoepitope-specific T cells was measured using the CytoTox 96® Non-Radioactive Cytotoxicity Assay Kit (Promega, Madison, WI, USA). T2 cells loaded with neoepitopes were used as target cells at 1 × 10^4 cells/well in 96-well plates. […] After adding stop solution at 50 µL/well, the plates were analyzed using a microplate reader at a wavelength of 490 nm. The killing percentage of antigen-specific T cells to T2 cells loaded with neoepitopes was calculated according to the following formula: killing percentage = (experimental release – target spontaneous release – effector spontaneous release)/(target maximum release – target spontaneous release) × 100%.

Sequence | FI (fluorescence index) [1] | Perforin expression in CTLs (neoepitope-specific CTLs [2]) | Proliferation of specific CD8+ T cells (naïve CD8+ T cells) | DC50 (time required for 50% dissociation of the pMHC complex stabilized at t = 0 h) [3] [h] | IFN-γ secretion in T cells stimulated by DCs with neoepitopes (T cells) | IFN-γ released by CTLs co-cultured with target cells (neoepitope-specific CTLs [4]) | TNF-α released by CTLs co-cultured with target cells (neoepitope-specific CTLs [5]) | Cytotoxicity of neoepitope-specific CTLs on T2 cells loaded with wild-type neoepitopes [6] | Stability of pMHC complexes (dissociation rate over 0-24 h, Figure 2B) [3]
FIGITATVV [mutABCA2] | 3.32 ± 0.36 | 29.87% ± 2.12% | 12.53% ± 1.79% | <18 |  |  |  |  | 
FLGITATVV [mutABCA2L2] | 4.49 ± 0.42 | 36.57% ± 2.01% | 16.47% ± 1.59% | >18 | more IFN-γ than the wild-type neoepitopes | released more IFN-γ and TNF-α | released more IFN-γ and TNF-α | killed a greater number of T2 cells loaded with wild-type neoepitopes | higher than those of wild-type neoepitopes
PLLPVTCGV [mutSP140] | 3.79 ± 0.50 | 44.70% ± 1.68% | 18.87% ± 0.81% | >24 |  |  |  |  | 
SLIISVDGV [mutSTOML2] | 4.71 ± 0.41 | 41.30% ± 1.76% | 17.70% ± 1.14% | >18 | more IFN-γ than the wild-type neoepitopes | released more IFN-γ and TNF-α | released more IFN-γ and TNF-α | killed a greater number of T2 cells loaded with wild-type neoepitopes | higher than those of wild-type neoepitopes
SVIISVDGV [mutSTOM] | 4.27 ± 0.52 | 35.53% ± 1.02% | 14.03% ± 0.76% | <18 |  |  |  |  | 
YLLPVTCGV [mutSP140Y1] |  | 56.20% ± 1.28% | 23.43% ± 1.17% |  | more IFN-γ than the wild-type neoepitopes | released more IFN-γ and TNF-α | released more IFN-γ and TNF-α | killed a greater number of T2 cells loaded with wild-type neoepitopes | higher than those of wild-type neoepitopes; also recorded: more stable than mutSP140
